Where a name gives a salt, the structure may show the parent alone. Where a SMILES comes first, the peptide text is derived from it. [ ]: non-standard residue; d: D form. dPhe(4-Cl) = N[C@H](Cc1ccc(Cl)cc1)C(=O)O; d2Nal = N[C@H](Cc1ccc2ccccc2c1)C(=O)O; d(hCit) = NC(=O)NCCCC[C@@H](N)C(=O)O; Lys(iPr) = CC(C)NCCCC[C@H](N)C(=O)O; d3Pal = N[C@H](Cc1cccnc1)C(=O)O
Experiments:
Assay type in all cases: in vivo, human
[1] = Phase I study (Example 2): Teverelix TFA concentrations in serum
Protocol: Two formulations comprising either 45 mg or 30 mg Teverelix TFA and a placebo formulations, were prepared as described in example 1, i.e. the following formulations were prepared
The respective formulations were each injected subcutaneous (s.c.) to 24 subjects—12 per group i.e. 8 on active drug 4 on placebo per group. All subjects received a dose on either the active or placebo s.c. on day 3±1 of the menstrual cycle, i.e. • A single dosage of formulation B (45 mg Teverelix TFA) administered s.c. on day 3±1 of the menstrual cycle, • A single dosages of formulation C (30 mg Teverelix TFA) administered s.c. on day 3±1 of the menstrual cycle, and • A single dosage of formulation B placebo or formulation C placebo administered s.c. on day 3±1 of the menstrual cycle.
The concentration of Teverelix TFA, and Estradiol was measured over a period of 63 days. Additionally, the effect on Teverelix TFA on two bone markers was measured.
The mean Teverelix TFA concentration in the serum of the respective subjects was measured.

women [2] = experiment: Phase I study (Example 2): bone marker deoxypyridinoline (DPD) in urine; details: 30 mg and 45 mg, days 1-64, FIG. 7
Protocol: (§1) In order to evaluate the effect of the treatment with Teverelix TFA on the bone mineral density, two biochemical bone mineral markers was measured in the subjects. Telopeptides type I collagen, cross-linked, […] (CTX) was measured in serum of the treated subjects, and deoxypyridinoline (DPD) was measured in the subject's urine.
(§2) Said bone markers were measured on the following days in the test period: 1 (pre-dose), 15, 29, 43, 57, 64
(§3) DPD is a dynamic biochemical marker of bone loss. An increase in DPD levels in an early morning urine specimen is a reliable indicator of increased bone loss. The CTX test measures for the presence and concentration of a crosslink peptide sequence of type I collagen, found, among other tissues, in bone. This specific peptide sequence relates to bone turnover because it is the portion that is cleaved by osteoclasts during bone resorption, and its serum levels are therefore proportional to osteoclastic activity at the time the blood sample is drawn.
(§4) The concentration of DPD and CTX test were carried out at MOS Pharma Services, Central Lab GmbH, Grossmoorbogen 25, 21079 Hamburg, Germany by means of highly sensitive and specific validated chemi-luminescent (CUA) and enzyme-linked immuno-sorbent (ELISA) methods. The results are shown in FIG. 7 and table 6 respectively.

women [3] = experiment: Phase I study (Example 2): bone marker CTX in serum
Protocol: as §1, §2, §3, §4

[4] = Phase I trial (Example 1): pharmacokinetics, total systemic exposure of Teverelix
Protocol: The Teverelix TFA formulations were manufactured as followed. 0.8 ml or 0.6 ml 5% mannitol were added to the relevant dosage of 60 or 45 mg of the LHRH antagonist Teverelix® trifluoroacetate, respectively. The mixture was stirred using vortex during one minute providing two dosage formulations of Teverelix TFA in a flowing milky pearly microcrystalline aqueous suspensions. The suspensions are made of microcrystals of about 10 μm length. Corresponding placebo formulations, without Teverelix TFA was also prepared
A phase I clinical trial with formulation A and B (and placebo) was conducted in order to evaluate the pharmacokinetics, pharmacodynamics, safety and tolerability of Teverelix TFA.
The formulations were each injected subcutaneous (s.c.) as follows: • A single dosage of formulation A (60 mg Teverelix TFA) administered s.c. on day 3±1 of the menstrual cycle, to 8 healthy female subjects • A single dosage of formulation A placebo was administered s.c. to on day 3±1 of the menstrual cycle, to 4 healthy female subjects • Two dosages of formulation B (45 mg Teverelix TFA) administered s.c. to 8 healthy female subjects. The first dosage on day 3±1 of the menstrual cycle and a second dosage administered on day 10±1 of the menstrual cycle, and • two dosages of formulation B placebo was administered s.c. to 4 healthy female subjects. The first dosage on day 3±1 of the […] menstrual cycle and a second dosage administered on day 10±1 of the menstrual cycle.

[5] = 60 mg single s.c. (Treatment Group 1)
[6] = 2 × 45 mg s.c. (Treatment Group 2)

For `CC(=O)N[C@H](Cc1ccc2ccccc2c1)C(=O)N[C@H](Cc1ccc(Cl)cc1)C(=O)N[C@H](Cc1cccnc1)C(=O)N[C@@H](CO)C(=O)N[C@@H](Cc1ccc(O)cc1)C(=O)N[C@H](CCCCNC(N)=O)C(=O)N[C@@H](CC(C)C)C(=O)N[C@@H](CCCCNC(C)C)C(=O)N1CCC[C@H]1C(=O)N[C@H](C)C(N)=O` [Teverelix TFA, N-Ac-d-Nal^1,d-pCl-Phe^2,d-Pal^3,d-(Hci)^6,Lys(iPr)^8,d-Ala^10 trifluoroacetate] (Ac-[d2Nal][dPhe(4-Cl)][d3Pal]SY[d(hCit)]L[Lys(iPr)]P[dA]-NH2; C-terminus assumed), the “period with quantifiable levels in serum” value ([1]; 30 mg dose) was 42 days, the “Mean Teverelix TFA concentration in serum” value ([1]; 30 mg s.c., 0 h) was 0.00 ng/L and the “period with quantifiable levels in serum” value ([1]; 45 mg dose) was 64 days. For the same compound, the “Mean Teverelix TFA concentration in serum” value ([1]; 45 mg s.c., 0 h) was 0.00 ng/L, the “Mean Teverelix TFA concentration in serum” value ([1]; 30 + 45 mg groups, 0 h) was 0.00 ng/L and the “Mean Teverelix TFA concentration in serum” value ([1]; 30 + 45 mg groups, 0.5 h) was 5.79 ng/L. The “alteration in bone marker urine DPD during the study” value (women [2]) was “no significant alteration”, the “alteration in bone marker serum CTX during the study” value (women [3]; 30 mg and 45 mg, days 1-64) was “no significant alteration” and the “CTX in serum, Mean” value (women [3]; 30 mg, Day 1 (pre-dose)) was 16.7 ng/L. The “CTX in serum, Mean” value (women [3]; 30 mg, Day 15) was 17.1 ng/L, the “CTX in serum, Mean” value (women [3]; 30 mg, Day 29) was 17 ng/L and the “CTX in serum, Mean” value (women [3]; 30 mg, Day 43) was 16.7 ng/L. For the same compound, the “CTX in serum, Mean” value (women [3]; 30 mg, Day 57) was 16.5 ng/L, the “CTX in serum, Mean” value (women [3]; 30 mg, Day 64) was 16.2 ng/L and the “CTX in serum, Mean” value (women [3]; 45 mg, Day 1 (pre-dose)) was 22.6 ng/L. For the same compound, the “CTX in serum, Mean” value (women [3]; 45 mg, Day 15) was 22.4 ng/L, the “CTX in serum, Mean” value (women [3]; 45 mg, Day 29) was 21.6 ng/L and the “CTX in serum, Mean” value (women [3]; 45 mg, Day 43) was 22 ng/L. The “CTX in serum, Mean” value (women [3]; 45 mg, Day 57) was 19.3 ng/L, the “CTX in serum, Mean” value (women [3]; 45 mg, Day 64) was 17.3 ng/L and the “AUC(0−cq), Geometric Mean” value [4, 5] was 1592 nM·h. For the same compound, the “AUC(0−t), Geometric Mean” value [4, 5] was 1907 nM·h, the “CmaxInit1, Geometric Mean” value [4, 5] was 10.9 nM and the “CmaxLate, Geometric Mean” value [4, 5] was 2.63 nM. The “AUC(0−cq), Geometric Mean” value [4, 6] was 2323 nM·h, the “AUC(0−t), Geometric Mean” value [4, 6] was 2833 nM·h and the “CmaxInit1, Geometric Mean” value [4, 6] was 6.03 nM. For the same compound, the “CmaxInit2, Geometric Mean” value [4, 6] was 7.03 nM, the “CmaxLate, Geometric Mean” value [4, 6] was 3.63 nM and the “total systemic exposure, two injections of 45 mg one week apart compared with a single 60 mg injection” value ([4]; s.c., healthy female subjects) was “approximately 1.5 fold”.
